Each structure is given as a SMILES string. Values joined by “and” are separate entries in the source; they are usually repeats but may differ in a detail not shown here. Identical values can stand only once.

T1 sequence (P42336 whole entry, canonical isoform): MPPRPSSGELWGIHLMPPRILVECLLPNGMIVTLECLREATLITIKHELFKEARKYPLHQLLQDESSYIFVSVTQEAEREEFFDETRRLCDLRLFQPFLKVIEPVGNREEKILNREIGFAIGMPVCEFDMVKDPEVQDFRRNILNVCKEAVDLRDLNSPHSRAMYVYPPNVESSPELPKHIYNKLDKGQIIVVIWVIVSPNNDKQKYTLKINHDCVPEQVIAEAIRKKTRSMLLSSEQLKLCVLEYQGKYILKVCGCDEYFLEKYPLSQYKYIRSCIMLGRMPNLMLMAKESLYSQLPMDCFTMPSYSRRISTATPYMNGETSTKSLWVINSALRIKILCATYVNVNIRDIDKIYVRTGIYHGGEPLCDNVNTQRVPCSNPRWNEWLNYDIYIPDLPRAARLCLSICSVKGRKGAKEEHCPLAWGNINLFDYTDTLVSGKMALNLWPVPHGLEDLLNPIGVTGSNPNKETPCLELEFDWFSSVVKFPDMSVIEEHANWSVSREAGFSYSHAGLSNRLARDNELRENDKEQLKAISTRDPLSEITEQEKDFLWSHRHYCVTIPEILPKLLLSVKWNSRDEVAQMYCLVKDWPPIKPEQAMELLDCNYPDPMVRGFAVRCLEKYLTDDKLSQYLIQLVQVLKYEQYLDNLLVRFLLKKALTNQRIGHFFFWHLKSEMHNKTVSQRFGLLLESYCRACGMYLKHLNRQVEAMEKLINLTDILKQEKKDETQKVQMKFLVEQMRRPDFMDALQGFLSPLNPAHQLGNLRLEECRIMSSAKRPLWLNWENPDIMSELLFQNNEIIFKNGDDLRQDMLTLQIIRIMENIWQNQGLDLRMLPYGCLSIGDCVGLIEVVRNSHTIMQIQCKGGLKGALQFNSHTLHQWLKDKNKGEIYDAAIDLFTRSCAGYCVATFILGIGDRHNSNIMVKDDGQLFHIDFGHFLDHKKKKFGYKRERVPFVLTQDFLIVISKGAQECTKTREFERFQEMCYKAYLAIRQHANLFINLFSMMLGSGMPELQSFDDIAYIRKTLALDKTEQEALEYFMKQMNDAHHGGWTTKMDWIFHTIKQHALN
T1 sequence (P27986 2-724, further chain): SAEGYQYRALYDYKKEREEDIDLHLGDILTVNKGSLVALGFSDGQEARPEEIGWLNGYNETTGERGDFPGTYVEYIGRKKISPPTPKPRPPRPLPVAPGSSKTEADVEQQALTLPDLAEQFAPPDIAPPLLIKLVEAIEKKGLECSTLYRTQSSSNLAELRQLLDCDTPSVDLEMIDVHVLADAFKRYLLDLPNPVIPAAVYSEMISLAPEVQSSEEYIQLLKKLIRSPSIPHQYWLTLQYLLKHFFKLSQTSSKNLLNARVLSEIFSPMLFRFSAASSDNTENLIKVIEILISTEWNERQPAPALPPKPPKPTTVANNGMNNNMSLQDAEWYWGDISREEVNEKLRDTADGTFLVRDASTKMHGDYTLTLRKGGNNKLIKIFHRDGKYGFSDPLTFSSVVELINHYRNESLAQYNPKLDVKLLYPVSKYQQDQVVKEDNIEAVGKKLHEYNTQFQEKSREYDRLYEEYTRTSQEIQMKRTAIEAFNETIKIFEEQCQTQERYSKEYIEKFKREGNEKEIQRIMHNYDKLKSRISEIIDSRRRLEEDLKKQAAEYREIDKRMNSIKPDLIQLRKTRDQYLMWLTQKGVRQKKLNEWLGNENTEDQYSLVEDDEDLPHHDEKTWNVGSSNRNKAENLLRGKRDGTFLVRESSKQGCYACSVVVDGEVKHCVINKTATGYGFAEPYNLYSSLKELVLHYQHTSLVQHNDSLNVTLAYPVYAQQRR

For the first experiment, the target named is recombinant mTOR (Homo sapiens, UniProt P42345). The experiment in a line: In vitro mTOR kinase assay, Test (a)(i) (AlphaScreen). The format is biochemical. The following applies: enzyme assay; values may represent the average of two or more measurements; read-out: Test (a)(i) IC50. The protocol: (a)(i) In Vitro mTOR Kinase Assay
recombinant mTOR, sequence (P42345 1362-2549): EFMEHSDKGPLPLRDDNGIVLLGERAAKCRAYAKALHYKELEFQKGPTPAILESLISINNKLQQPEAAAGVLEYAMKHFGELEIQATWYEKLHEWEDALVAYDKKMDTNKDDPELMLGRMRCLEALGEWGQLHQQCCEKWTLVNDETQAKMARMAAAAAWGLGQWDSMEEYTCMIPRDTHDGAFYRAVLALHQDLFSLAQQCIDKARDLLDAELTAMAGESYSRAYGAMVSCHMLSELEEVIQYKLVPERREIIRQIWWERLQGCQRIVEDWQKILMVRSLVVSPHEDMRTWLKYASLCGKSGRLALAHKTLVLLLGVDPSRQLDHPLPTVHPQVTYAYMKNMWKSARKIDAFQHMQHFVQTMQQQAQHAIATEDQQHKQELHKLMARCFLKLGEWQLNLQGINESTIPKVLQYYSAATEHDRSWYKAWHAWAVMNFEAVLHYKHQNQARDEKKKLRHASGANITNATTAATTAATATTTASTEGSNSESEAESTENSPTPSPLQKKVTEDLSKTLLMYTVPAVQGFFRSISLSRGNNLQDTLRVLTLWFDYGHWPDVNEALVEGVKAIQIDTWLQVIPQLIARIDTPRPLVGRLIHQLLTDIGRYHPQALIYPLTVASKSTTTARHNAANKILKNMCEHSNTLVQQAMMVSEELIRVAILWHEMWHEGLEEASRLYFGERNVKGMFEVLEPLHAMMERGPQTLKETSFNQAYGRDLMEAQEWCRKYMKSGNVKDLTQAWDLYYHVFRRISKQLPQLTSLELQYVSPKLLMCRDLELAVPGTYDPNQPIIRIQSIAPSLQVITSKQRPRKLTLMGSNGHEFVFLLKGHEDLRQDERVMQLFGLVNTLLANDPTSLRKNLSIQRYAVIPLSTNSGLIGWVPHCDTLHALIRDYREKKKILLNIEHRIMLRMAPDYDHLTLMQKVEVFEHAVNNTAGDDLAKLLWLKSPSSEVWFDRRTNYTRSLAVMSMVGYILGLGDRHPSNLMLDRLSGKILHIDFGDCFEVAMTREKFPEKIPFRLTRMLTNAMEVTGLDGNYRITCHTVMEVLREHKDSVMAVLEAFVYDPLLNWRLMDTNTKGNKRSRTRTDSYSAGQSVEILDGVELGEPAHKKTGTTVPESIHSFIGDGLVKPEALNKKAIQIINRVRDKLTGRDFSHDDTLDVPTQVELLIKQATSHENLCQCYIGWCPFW
The HEK293 FLAG-tagged mTOR (1362-2549) stable cell line was routinely maintained at 37° C. with 5% CO2 up to a confluency of 70-90% in Dulbecco's modified Eagle's growth medium (DMEM; Invitrogen Limited, Paisley, UK Catalogue No. 41966-029) containing 10% heat-inactivated foetal calf serum (FCS; Sigma, Poole, Dorset, UK, Catalogue No. F0392), 1% L-glutamine (Gibco, Catalogue No. 25030-024) and 2 mg/ml Geneticin (G418 sulfate; Invitrogen Limited, UK Catalogue No. 10131-027). Following expression in the mammalian HEK293 cell line, expressed protein was purified using the FLAG epitope tag using standard purification techniques.
A 30 μl mixture of recombinant purified mTOR enzyme, 1 μM biotinylated peptide substrate (Biotin-Ahx-[…]NH2; Bachem UK Ltd), ATP (20 μM) and a buffer solution [comprising Tris-HCl pH7.4 buffer (50 mM), EGTA (0.1 mM), bovine serum albumin (0.5 mg/mL), DTT (1.25 mM) and manganese chloride (10 mM)] was agitated at room temperature for 90 minutes.
These assay solutions were incubated for 2 hours at room temperature.
Phosphorylated biotinylated peptide is formed in situ as a result of mTOR mediated phosphorylation. The phosphorylated biotinylated peptide that is associated with AlphaScreen Streptavidin donor beads forms a complex with the p70 S6 Kinase (T389) 1A5 Monoclonal Antibody that is associated with Alphascreen Protein A acceptor beads. […] Accordingly, the presence of mTOR kinase activity results in an assay signal. In the presence of an mTOR kinase inhibitor, signal strength is reduced.
Background: Alpha assays give light when donor and acceptor beads are brought close together.
Broadly, the IC50 is the concentration that gives 50% inhibition. `C[C@H]1COCCN1c1cc(CS(C)(=O)=O)nc(-c2cnc(-c3cn[nH]c3)s2)n1` [Example 34, 4-[(3S)-3-Methylmorpholin-4-yl]-6-(methylsulfonylmethyl)-2-[2-(1H-pyrazol-4-yl)-1,3-thiazol-5-yl]pyrimidine]: the IC50 is 573 nM. On the same count and under the same terms, the result for `C[C@H]1COCCN1c1cc(CS(C)(=O)=O)nc(-c2ccc3cc[nH]c3c2)n1` [Example 35, 6-[4-[(3S)-3-Methylmorpholin-4-yl]-6-(methylsulfonylmethyl)pyrimidin-2-yl]-1H-indole] reads 478 nM. Same read-out and setting: the result for `C[C@H]1COCCN1c1cc(CS(C)(=O)=O)nc(-c2ccc3c(C(N)=O)c[nH]c3c2)n1` [Example 36, 6-[4-[(3S)-3-Methylmorpholin-4-yl]-6-(methylsulfonylmethyl)pyrimidin-2-yl]-1H-indole-3-carboxamide] reads 1640 nM. Consider `C[C@H]1COCCN1c1cc(CS(C)(=O)=O)nc(-c2ccc3[nH]c(C(N)=O)cc3c2)n1` [Example 37, 5-[4-[(3S)-3-Methylmorpholin-4-yl]-6-(methylsulfonylmethyl)pyrimidin-2-yl]-1H-indole-2-carboxamide], for which the IC50 is 336 nM.

For `C[C@H]1COCCN1c1cc(CS(C)(=O)=O)nc(-c2ccc3cc(C(N)=O)[nH]c3c2)n1` [Example 38, 6-[4-[(3S)-3-Methylmorpholin-4-yl]-6-(methylsulfonylmethyl)pyrimidin-2-yl]-1H-indole-2-carboxamide], the IC50 was 5350 nM. Still for that read-out and setting: the result for `C[C@H]1COCCN1c1cc(C(C)(C)S(C)(=O)=O)nc(-c2ccc3[nH]cnc3c2)n1` [Example 39, 5-[4-[(3S)-3-Methylmorpholin-4-yl]-6-(2-methylsulfonylpropan-2-yl)pyrimidin-2-yl]-1H-benzoimidazole] reads 192 nM. Same read-out and setting: the result for `C[C@H]1COCCN1c1cc(C(C)(C)S(C)(=O)=O)nc(-c2cnc3[nH]ccc3c2)n1` [Example 40, 3-[4-[(3S)-3-Methylmorpholin-4-yl]-6-(2-methylsulfonylpropan-2-yl)pyrimidin-2-yl]-5,7-diazabicyclo[4.3.0]nona-1,3,5,8-tetraene] reads 588 nM; that for `C[C@H]1COCCN1c1cc(C(C)(C)S(C)(=O)=O)nc(-c2ccc3[nH]ccc3c2)n1` [Example 41, 5-[4-[(3S)-3-methylmorpholin-4-yl]-6-(2-methylsulfonylpropan-2-yl)pyrimidin-2-yl]-1H-indole], 117 nM. Still for that read-out and setting: the result for `C[C@H]1COCCN1c1cc(C(C)(C)S(C)(=O)=O)nc(-c2cccc3[nH]ccc23)n1` [Example 42, 4-[4-[(3S)-3-methylmorpholin-4-yl]-6-(2-methylsulfonylpropan-2-yl)pyrimidin-2-yl]-1H-indole] reads 335 nM; that for `C[C@H]1COCCN1c1cc(C(C)(C)S(C)(=O)=O)nc(-c2ccc3cc[nH]c3c2)n1` [Example 43, 6-[4-[(3S)-3-methylmorpholin-4-yl]-6-(2-methylsulfonylpropan-2-yl)pyrimidin-2-yl]-1H-indole], 880 nM; that for `C[C@H]1COCCN1c1cc(CS(=O)(=O)c2ccccc2)nc(-c2cccc3[nH]ccc23)n1` [Example 44, 4-[4-(Benzenesulfonylmethyl)-6-[(3S)-3-methylmorpholin-4-yl]pyrimidin-2-yl]-1H-indole], 366 nM. As for `C[C@H]1COCCN1c1cc(CS(=O)(=O)c2ccccc2)nc(-c2ccc3[nH]ccc3c2)n1` [Example 45, 5-[4-(benzenesulfonylmethyl)-6-[(3S)-3-methylmorpholin-4-yl]pyrimidin-2-yl]-1H-indole], the IC50 was found to be 119 nM. With `C[C@H]1COCCN1c1cc(CS(=O)(=O)c2ccccc2)nc(-c2cnc3[nH]ccc3c2)n1` [Example 46, 3-[4-(benzenesulfonylmethyl)-6-[(3S)-3-methylmorpholin-4-yl]pyrimidin-2-yl]-5,7-diazabicyclo[4.3.0]nona-1,3,5,8-tetraene], the IC50 was found to be 932 nM.

As for `C[C@H]1COCCN1c1cc(CS(=O)(=O)c2ccccc2)nc(-c2ccc3cc[nH]c3c2)n1` [Example 47, 6-[4-(benzenesulfonylmethyl)-6-[(3S)-3-methylmorpholin-4-yl]pyrimidin-2-yl]-1H-indole], the IC50 was found to be 512 nM. On the same count and under the same terms, for `C[C@H]1COCCN1c1cc(CS(=O)(=O)c2ccccc2)nc(-c2ccc3[nH]cnc3c2)n1` [Example 48, 5-[4-(benzenesulfonylmethyl)-6-[(3S)-3-methylmorpholin-4-yl]pyrimidin-2-yl]-1H-benzoimidazole] the value was 108 nM.

The same experiment, now with this note: single values measured on two occasions; read-out: IC50 versus mTOR kinase, Test (a)(i).
In the case of `C[C@H]1COCCN1c1cc(CS(C)(=O)=O)nc(-c2ccc3cc[nH]c3c2)n1` [Example 35, 6-[4-[(3S)-3-Methylmorpholin-4-yl]-6-(methylsulfonylmethyl)pyrimidin-2-yl]-1H-indole], the IC50 is 566 nM and 404 nM.

The subject of a further experiment is Serine 473 in Akt. Description: In vitro phospho-Ser473 Akt assay, Test (c). It is filed as cell-based. The note with it: Homo sapiens; MDA-MB-468 cells; read-out: IC50 versus Serine 473 in Akt, Test (c). The protocol:
(c) In Vitro phospho-Ser473 Akt Assay
This assay determines the ability of test compounds to inhibit phosphorylation of Serine 473 in Akt as assessed using Acumen Explorer technology (Acumen Bioscience Limited), a plate reader that can be used to rapidly quantitate features of images generated by laser-scanning.
A MDA-MB-468 human breast adenocarcinoma cell line (LGC Promochem, Teddington, Middlesex, UK, Catalogue No. HTB-132) was routinely maintained at 37° C. with 5% CO2 up to a confluency of 70-90% in DMEM containing 10% heat-inactivated FCS and 1% L-glutamine.
For the assay, the cells were detached from the culture flask using ‘Accutase’ (Innovative Cell Technologies Inc., San Diego, Calif., USA; Catalogue No. AT104) using standard tissue culture methods and resuspended in media to give 1.7×10^5 cells per mL. […]
All subsequent aspiration and wash steps were carried out using a Tecan 96 well plate washer (aspiration speed 10 mm/sec). […] An aliquot of PBS (50 μl) was added to each well and the plates were sealed with black plate sealers and the fluorescence signal was detected and analysed.
Fluorescence dose response data obtained with each compound were analysed and the degree of inhibition of Serine 473 in Akt was expressed as an IC50 value.
As for `C[C@H]1COCCN1c1cc(CS(C)(=O)=O)nc(-c2ccc3cc[nH]c3c2)n1` [Example 35, 6-[4-[(3S)-3-Methylmorpholin-4-yl]-6-(methylsulfonylmethyl)pyrimidin-2-yl]-1H-indole], the concentration for half-maximal inhibition (IC50) was determined as 3360 nM.

Another experiment concerns the target T1, PI3K.
T1 construct: full length DNA of each of the p110α, p110β and p110δ Type Ia human PI3K p110 isoforms
The experiment in a line: In vitro PI3K enzyme assay, Test (b)(i) (AlphaScreen). The format is biochemical, human. The note with it: single values measured on two occasions; isoform (p110α or p110γ) not clearly stated; read-out: IC50 versus PI3K, Test (b)(i). An excerpt: (b)(i) In Vitro PI3K Enzyme Assay
Regarding `C[C@H]1COCCN1c1cc(CS(C)(=O)=O)nc(-c2ccc3cc[nH]c3c2)n1` [Example 35, 6-[4-[(3S)-3-Methylmorpholin-4-yl]-6-(methylsulfonylmethyl)pyrimidin-2-yl]-1H-indole], the IC50 is 37000 nM.

Values taken from patent US20100227858A1, “TRISUBSTITUTED PYRIMIDINE DERIVATIVES FOR THE TREATMENT OF PROLIFERATIVE DISEASES” (ASTRAZENECA AB, priority 2007, published 2010).
